One data set addresses BTK (Mus musculus, UniProt P35991). Kind of data set: BTK inhibition assay of benzopyran derivatives. Type of data set: biochemical. To be noted: for IC50: BTK inhibitory activity; for BTK inhibitory activity in words: kinase assays.
The test system of the next data set is RBL-2H3 rat mast cells. Kind of data set: IgE/FcεRI receptor mediated leukotriene C4 release, RBL-2H3 mast cells. In kind it is cell-based. Particulars: RBL-2H3, IgE/DNP-BSA challenge, 30 min pre-incubation, 1-100 μM, N = 3-4, read-out: EC50 (mean ± SEM), inhibition of leukotriene C4 release. The protocol:
Mast Cell Cultures. RBL-2H3 mast cells were a gift from Dr. Reuben P. Siraganian (Laboratory of Microbiology and Immunology, National Institute of Dental Research, National Institute of Health). The cells were maintained as monolayer cultures in 75- or 150-cm^2 flask in Eagle's essential medium supplemented with 20% fetal calf serum. Human fetal livers (16 to 21 weeks of gestational age) were obtained from prostaglandin-induced human abortuses. Subsequently, single cell suspensions were prepared and mononuclear cells were isolated by centrifugation on Ficoll-Hypaque gradients as described (Malaviya, R., et al., (1999) J Biol Chem, 274, 27028-27038). Isolated cells were cultured for 8 weeks in the presence of 100 ng/ml rhSCF, 2 ng/ml rhIL-4 (Malaviya, R., et al., (1999) J Biol Chem, 274, 27028-27038; Xia, H. Z., et al., (1997) J Immunol, 159, 2911-2921). Culture medium was replaced with fresh medium once a week for the first 2 weeks and twice a week thereafter. All human tissue specimens were used following the guidelines of the Parker Hughes Institute Institutional Review Board on the Use of Human Subjects in Research for secondary use of pathologic or surgical tissue. At the end of the 8 weeks the fetal liver derived human mast cell culture contained 70-90 percent mast cells, based on toluidine blue and tryptase staining (Xia, H. Z., et al., (1997) J Immunol, 159, 2911-2921).
Stimulation of Mast Cells. RBL-2H3 rat mast were sensitized with monoclonal anti-DNP IgE antibody (0.24 mg/ml) for 1 h at 37° C. in a 48-well tissue culture plate. Unbound IgE was removed by washing the cells with PIPES-buffered saline. After washing, PIPES-buffered saline containing 1 mM calcium chloride was added to the monolayers of the RBL-2H3 cells. The cells were challenged with 20 ng/ml DNP-BSA for 30 min at 37° C. The plate was centrifuged at 200 g for 10 min at 4° C. Supernatants were removed and saved. Fetal liver-derived human mast cells were resuspended in culture medium at a cell density of 5×10^6/ml and sensitized with human IgE (150 μg/ml) for 3 h at 4° C. After sensitization the cells were washed with tyrode buffer containing 1 mM calcium and 1 mM magnesium and challenged with mouse monoclonal anti-human IgE (40 μg/ml) for 30 min at 37° C. To study the effect of test drugs, RBL-2H3 rat mast cells or human mast cells were incubated with the drugs at the indicated concentrations or vehicle for 30 min prior to antigen challenge.
Mediator Release Assay. Leukotriene C4 levels were estimated in cell free supernatants of mast cells by immunoassay (Malaviya, R. and Abraham, S. N., (1995) Methods Enzymol, 253, 27-43).
Mast cells release large amounts of leukotrienes upon IgE receptor ligation. Because of the reported ability of LFM as a mast cell inhibitor, we utilized 13 analogues of LFM (Table 1) and examined their effect on IgE/FcεERI receptor mediated mast cell leukotriene C4 release. RBL-2H3 cells, a mucosal mast cell line, were treated with 5 different concentrations of the compounds ranging from 1 μM to 100 μM or vehicle for 30 min before challenge with antigen (DNP-BSA) at 37° C. Leukotriene C4 release was quantitated in the extracellular medium employing a previously described ELISA (Malaviya, R. and Abraham, S. N., (1995) Methods Enzymol, 253, 27-43).

The subject of a further data set is NALM-6 cells. Kind of data set: Apoptosis induction, TUNNEL and flow cytometric assay. Type of data set: cell-based, human. Particulars: compound alone, 100 μM. In general terms: In flow cytometry, cells or beads pass a laser one at a time.
The test system of another data set is human leukemia cells. Kind of data set: Ceramide or vincristine sensitivity of human leukemia cells. Type of data set: cell-based. Particulars: co-administration with chemotherapeutic agent. An excerpt: FIG. 23: Effects of DDE-11 on ceramide or vincristine—sensitivity of human leukemia cells. Studies were done as described above for FIG. 17, but using DDE 11 as the BTK inhibitor.

The record followed here is US6753348B2, “BTK inhibitors and methods for their identification and use” (Parker Hughes Institute, priority 1998, dated 2004).

Chain of BTK (P35991 whole entry): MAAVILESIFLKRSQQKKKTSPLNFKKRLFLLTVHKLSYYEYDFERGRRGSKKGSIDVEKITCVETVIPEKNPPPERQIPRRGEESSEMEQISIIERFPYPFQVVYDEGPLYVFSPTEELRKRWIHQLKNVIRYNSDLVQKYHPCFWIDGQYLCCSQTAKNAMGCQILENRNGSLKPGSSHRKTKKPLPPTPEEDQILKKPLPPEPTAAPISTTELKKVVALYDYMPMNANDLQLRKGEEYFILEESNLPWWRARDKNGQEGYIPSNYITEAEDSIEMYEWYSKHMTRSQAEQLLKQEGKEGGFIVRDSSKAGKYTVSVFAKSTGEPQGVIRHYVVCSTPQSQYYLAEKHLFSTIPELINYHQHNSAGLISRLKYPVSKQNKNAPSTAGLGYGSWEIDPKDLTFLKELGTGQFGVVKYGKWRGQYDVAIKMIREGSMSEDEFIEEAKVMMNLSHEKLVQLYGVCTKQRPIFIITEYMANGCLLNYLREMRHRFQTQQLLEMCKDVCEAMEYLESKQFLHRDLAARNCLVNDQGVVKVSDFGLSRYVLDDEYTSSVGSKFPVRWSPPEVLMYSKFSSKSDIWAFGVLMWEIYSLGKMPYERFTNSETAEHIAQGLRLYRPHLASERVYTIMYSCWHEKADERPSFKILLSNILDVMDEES

Regarding `CCc1cc(=O)oc2cc(O)cc(O)c12` [DDE214, 5,7-Dihydroxy-4-ethyl-2H-1-benzopyran-2-one], at BTK, the IC50 is under 48.5 µM and the “BTK inhibitory activity in words” value is given as “potent BTK inhibitors”.
Consider `C/C(O)=C(\C#N)C(=O)Nc1ccc(OC(F)(F)F)c(Br)c1` [LFM-A17, α-Cyano-β-hydroxy-β-methyl-N-[3-bromo-4-(trifluoromethoxy)-phenyl]propenamide], for which the melting point fell in the range of 178 to 179 °C.
Still for that read-out and setting: next, `C/C(O)=C(\C#N)C(=O)Nc1ccc(S(C)(=O)=O)cc1` [LFM-A15, α-Cyano-β-hydroxy-β-methyl-N-[4-(methylsulfonyl)phenyl]-propenamide]: 205 to 206 °C.
As to `CCCc1cc(=O)oc2cc(O)cc(O)c12` [DDE181, 5,7-Dihydroxy-4 propyl-2H-1-benzopyran-2-one], at BTK, the half-maximal inhibitory concentration (IC50) was under 45.4 µM and the “BTK inhibitory activity in words” value was “potent BTK inhibitors”.
For the compound `CCCc1cc(=O)oc2c(C(=O)CC)c(OC)cc(OC)c12` [DDE229], on BTK, the IC50 is over 329 µM.
`CC(O)=C(C#N)C(=O)Nc1ccc(Br)cc1` [LFM-A1, α-Cyano-β-hydroxy-β-methyl-N-(4-bromophenyl)propenamide] returned a melting point of 213 to 214 °C. The EC50 with RBL-2H3 rat mast cells is 64 ± 13.9 µM.
On to `CCCc1cc(=O)oc2c(C(=O)CC)c(O)cc(O)c12` [DDE11, 5,7-Dihydroxy-8-propanoyl-4-propyl-2H-1-benzopyran-2-one], for which, on BTK, the 50% inhibitory concentration (IC50) is under 36.2 µM and the “BTK inhibitory activity in words” value was “potent BTK inhibitors”. For the same compound, the apoptosis induction entry in the data set on NALM-6 cells is listed as “induces apoptosis”. Besides, the “cytotoxicity of C2-CER and vincristine on co-administration” value with human leukemia cells is reported as “increaseed the cytotoxicity”.
Regarding `CC(O)=C(C#N)C(=O)Nc1cccc(F)c1` [LFM-A11, α-Cyano-β-hydroxy-β-methyl-N-(3-fluorophenyl)propenamide], the melting point is 136 to 138 °C. The concentration for a half-maximal effect (EC50) in the data set on RBL-2H3 rat mast cells was over 100 µM.
In the same order, the values of `CC(O)=C(C#N)C(=O)Nc1ccccc1` [LFM-A14, α-Cyano-β-hydroxy-β-methyl-N-(phenyl)propenamide] are 134 to 135 °C and over 100 µM.
Regarding `C/C(O)=C(\C#N)C(=O)Nc1ccc(Br)cc1Br` [LFM-A19, α-Cyano-β-hydroxy-β-methyl-N-(2,4-dibromophenyl)-propenamide], the melting point was 181 °C.
Turning to `CC(O)=C(C#N)C(=O)Nc1ccc(C(F)(F)F)cc1` [LFM, α-Cyano-β-hydroxy-β-methyl-N-[4-(trifluoromethyl)phenyl]-propenamide, reference compound], the EC50 in the data set on RBL-2H3 rat mast cells was found to be 34 ± 14.5 µM.
Turning to `CC(O)=C(C#N)C(=O)Nc1ccccc1C(F)(F)F` [LFM-A4, α-Cyano-β-hydroxy-β-methyl-N-[2-(trifluoromethyl)phenyl]-propenamide], the melting point is 61 to 63 °C. Moreover, in the data set with RBL-2H3 rat mast cells, the 50% effective concentration (EC50) is over 100 µM.
On the same counts, the results for `CC(O)=C(C#N)C(=O)Nc1ccccc1Cl` [LFM-A6, α-Cyano-β-hydroxy-β-methyl-N-(2-chlorophenyl)propenamide] are 93 to 94 °C and over 100 µM.
In the same order, the values of `CC(O)=C(C#N)C(=O)Nc1ccc(Cl)cc1` [LFM-A2, α-Cyano-β-hydroxy-β-methyl-N-(4-chlorophenyl)propenamide] are 209 to 211 °C and 58 ± 13 µM.
For `C/C(O)=C(\C#N)C(=O)Nc1cc(Cl)ccc1Cl` [LFM-A18, α-Cyano-β-hydroxy-β-methyl-N-(2,5-dichlorophenyl)-propenamide], the melting point fell in the range of 143 to 144 °C.
As to `CC(O)=C(C#N)C(=O)Nc1ccc(F)cc1` [LFM-A3, α-Cyano-β-hydroxy-β-methyl-N-(4-fluorophenyl)propenamide], the melting point is 165 to 166 °C. Besides, the EC50 in the data set on RBL-2H3 rat mast cells is over 100 µM.
At BTK, `O=c1cc(-c2ccccc2)c2c(O)cc(O)cc2o1` [DDE270, 5,7-Dihydroxy-4-phenyl-2H-1-benzopyran-2-one] gave a half-inhibitory concentration (IC50) of 98.3 µM.
The same measure, in the same setting: next, `CCCc1cc(=O)oc2c(C(C)=O)c(O)cc(O)c12` [DDE271, 5,7-Dihydroxy-8-acetyl-4-propyl-2H-1-benzopyran-2-one]: over 381 µM.
With `CC(O)=C(C#N)C(=O)Nc1ccccc1Br` [LFM-A5, α-Cyano-β-hydroxy-β-methyl-N-(2-bromophenyl)propenamide], the melting point was in the range of 98 to 100 °C. Besides, in the data set with RBL-2H3 rat mast cells, the EC50 was determined as 46 ± 10 µM.
`CCCc1cc(=O)oc2c(C(=O)C(C)C)c(O)cc(O)c12` [DDE272] yielded an IC50 against BTK of over 344 µM.
`CC(O)=C(C#N)C(=O)Nc1cccc(Br)c1` [LFM-A9, α-Cyano-β-hydroxy-β-methyl-N-(3-bromophenyl)propenamide] displayed a melting point of 184 to 185 °C. Further, the EC50 in the data set on RBL-2H3 rat mast cells is over 100 µM.
`CCCc1cc(=O)oc2c(C(=O)c3ccccc3)c(O)cc(O)c12` [DDE355] returned a concentration for half-maximal inhibition (IC50) at BTK of over 308 µM.
`CCCc1cc(=O)oc2c(C=O)c(O)cc(O)c12` [DDE213, 5,7-Dihydroxy-8-carboxaldehyde-4-propyl-2H-1-benzopyran-2-one]: on BTK, the half-maximal inhibitory concentration (IC50) is under 40.3 µM and the “BTK inhibitory activity in words” value is “potent BTK inhibitors”.
Take `C/C(O)=C(\C#N)C(=O)Nc1cccc(S(C)(=O)=O)c1` [LFM-A16]: the melting point lay in the range of 213 to 214 °C.
In turn, `CC(O)=C(C#N)C(=O)Nc1cccc(Cl)c1` [LFM-A10, α-Cyano-β-hydroxy-β-methyl-N-(3-chlorophenyl)propenamide] had a melting point of 184 to 187 °C. The EC50 in the data set on RBL-2H3 rat mast cells was 51 ± 12 µM.
On the same counts, the results for `CC(O)=C(C#N)C(=O)Nc1ccccc1F` [LFM-A7, α-Cyano-β-hydroxy-β-methyl-N-(2-fluorophenyl)propenamide] are 118 to 119 °C and over 100 µM.
In turn, `CC(O)=C(C#N)C(=O)Nc1ccc(OC(F)(F)F)cc1` [LFM-A12, α-Cyano-β-hydroxy-β-methyl-N-[4-(trifluoromethoxy)phenyl]-propenamide] registered a melting point of 182 to 183 °C. In addition, in the data set with RBL-2H3 rat mast cells, the EC50 stood at 30 ± 5.6 µM.
Consider `C/C(O)=C(\C#N)C(=O)Nc1ccc(Cl)cc1Cl` [LFM-A20, α-Cyano-β-hydroxy-β-methyl-N-(2,4-dichlorophenyl)-propenamide], for which the melting point fell in the range of 143 to 144 °C.

The IC50 is the midpoint of a concentration-inhibition curve. One may read the melting point as the temperature of the solid-liquid transition. As a reminder, the EC50 is the concentration giving half of the maximal effect.
